Test system: lysine deficient rats
Experiment: Effect of a medicine on abnormal bowel movement of lysine deficient rats (carmine dye feces count)
Assay type: in vivo, rats (male Wistar)
Settings: oral administration with carmine dye; rats fed low lysine diet 7 days, fasted one day; Dunnett's method
Description: The low lysine diet (n=10) or lysine-containing diet (normal diet; n=10) was given to rats (Charles River Japan, Inc, male Wistar rats, 5W). The rats fed for 7 days were used. Each rat was fasted one day before the start of the experiments (on the 6th day after beginning the feeding of the experimental diet) and then a medicine and carmine dye were orally administered. The number of the carmine colorant-containing feces was cumulatively counted sequentially. The statistical analysis was conducted according to Dunnett's method.

Cc1[nH]cnc1CN1CCc2c(c3ccccc3n2C)C1=O [Alosetron]
acceleration of the excretion of carmine-containing feces: significantly control the acceleration of the excretion of the feces
